In ChEMBL document CHEMBL1125304, “Synthesis and antitumor activity of 3- and 5-hydroxy-4-methylpyridine-2-carboxaldehyde thiosemicarbazones” (1992):

Key:
[1] = system: Mus musculus; assay: Ratio of the survival time of treated to control mice bearing the L1210 leukemia after intraperitoneal administration of the 40 mg/kg compound in the DMSO solution form
[2] = system: Mus musculus; assay: Average weight change of mice bearing the L1210 leukemia (24 hr after tumor implantation) after intraperitoneal administration of the 40 mg/kg compound in the DMSO solution form
[3] = system: Mus musculus; assay: Average weight change of mice bearing the L1210 leukemia (24 hr after tumor implantation) after intraperitoneal administration of the 40 mg/kg compound in the suspension form
[4] = system: Mus musculus; assay: Ratio of the survival time of treated to control mice bearing the L1210 leukemia after intraperitoneal administration of the 40 mg/kg compound in the suspension form
[5] = system: Mus musculus; assay: Average weight change of mice bearing the L1210 leukemia (24 hr after tumor implantation) after intraperitoneal administration of the 50 mg/kg compound in the suspension form
[6] = system: Mus musculus; assay: Ratio of the survival time of treated to control mice bearing the L1210 leukemia after intraperitoneal administration of the 50 mg/kg compound in the suspension form

Structure (SMILES)	T/C [1] [%]	Average weight change [2] [%]	Average weight change [3] [%]	T/C [4] [%]	Average weight change [5] [%]	T/C [6] [%]
N/C(S)=N/N=C/c1ccc(O)cn1	132	1.8				
Cc1cc(/C=N/N=C(/N)S)ncc1O	138	-7.4	-3.4	186		
Cc1ccnc(/C=N/N=C(/N)S)c1O	135	0.5			0.9	168
N/C(S)=N/N=C/c1ncccc1O	114	1.5				
